22 compounds from PubChem BioAssay (NCI) can be followed below.

Experiment in all cases: inhibition of tumour cell growth, NCI panel, 48 h
The test system of assay [1] is MALME-3M melanoma.
In assay [2] the test system is ACHN renal.
Assay [3] relates to UO-31 renal.
In assay [4] the test system is SF-539 CNS.
The test system of assay [5] is SNB-75 CNS.
Assay [6] has as its system TK-10 renal.
Assay [7] concerns LXFL 529 NSCLC.
Assay [8] has as its system M19-MEL melanoma.
Assay [9] deals with MOLT-4 leukemia.
Assay [10] concerns DU-145 prostate.

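Following 48 hours of exposure in 96-well plates, responses at five concentrations were used to interpolate endpoints linearly. Here, GI50 denotes the concentration required for 50% inhibition of growth. At the TGI there is no net growth.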 Where a SMILES comes first, the peptide text is derived from it. The star is where a group is joined. Trt = c1ccc(C(c2ccccc2)(c2ccccc2)*)cc1; Cbz = O=C(OCc1ccccc1)*

As for `O=C(c1ccc(O)cc1O)C1C(c2ccc(O)cc2)OC(c2ccc(O)cc2)C1C(=O)c1ccc(O)cc1O` (stereo unspecified), the TGI stood at 31.2 µM in assay [1]; 63.1 µM in assay [2]; 76.9 µM in [3]; 47.1 µM in assay [4]; 42.1 µM in assay [5]; 49.8 µM in assay [6]. Further, the TGI in assay [7] came out at 34.7 µM; in assay [8], 36.5 µM.
In the case of `Nc1ccc2n[se]nc2c1`, the TGI in assay [1], in assay [2], in assay [3], in assay [4], in assay [5] and in [6] was above 100 µM throughout. For the same compound, the TGI in assay [9], in assay [7] and in assay [8] was above 100 µM each time.
As for `Cc1ccc(NC(=O)CCc2nc(=S)[nH][nH]2)cc1`, the TGI in assay [1], in assay [2], in assay [3], in assay [4], in assay [5] and in assay [6] was above 100 µM each time. Besides, the TGI in assay [9], in [7] and in [8] was above 100 µM in each case.
Take `NC(=O)c1ccc2c(c1)-c1nc-2nc2[n-]c(nc3nc(nc4[n-]c(n1)c1ccc(C(N)=O)cc41)-c1ccc(C(N)=O)cc1-3)c1ccc(C(N)=O)cc21.[Co+2]`: the GI50 in assay [1] is above 50 µM; in assay [2], above 50 µM; in assay [4], 12.7 µM; in [5], above 50 µM; in [6], above 50 µM; in assay [9] it was above 50 µM. Also, the GI50 in assay [7] is 35.9 µM. Besides, the TGI in assay [1] is above 50 µM; in assay [2] it was above 50 µM; in [4], 33.5 µM; in assay [5] it was above 50 µM; in assay [6], above 50 µM; in assay [9], above 50 µM. Further, in assay [7], the TGI is above 50 µM.
With `CC1(C)CCC(Sc2ccccc2)O1` (stereo unspecified), the TGI in assay [2], in [3], in assay [4], in assay [5], in [6] and in assay [9] was above 100 µM throughout. Also, the TGI in [7] and in assay [8] was above 100 µM throughout.
Consider `CN(C)CCNC(=O)c1cccc2c1nc(-c1ccc(F)cc1)c1ccccc12`, for which the TGI is 11.4 µM in [2]; 4.51 µM in [3]; 13.8 µM in assay [4]; 22.8 µM in [5]; 16.6 µM in assay [6]; 1.77 µM in assay [9]. Also, in [8], the TGI came to 18.6 µM.
For `O=C1CC(c2c[nH]c3ccc(F)cc23)C(=O)N1` (stereo unspecified), the GI50 in assay [1], in assay [2], in [3], in assay [4], in [5] and in [10] was above 100 µM throughout. Also, the GI50 in assay [6] and in assay [9] was above 100 µM in each case. The TGI in [1], in assay [2], in assay [3], in [4], in [5] and in assay [10] was above 100 µM each time. In addition, the TGI in assay [6] and in assay [9] was above 100 µM each time.
Consider `CO[C@H]1C[C@@H]2CC[C@@H](C)[C@@](O)(O2)C(=O)C(=O)N2CCCC[C@H]2C(=O)O[C@H]([C@H](C)C[C@@H]2CC[C@@H](OC(=O)C(C)(CO)CO)[C@H](OC)C2)CC(=O)[C@H](C)/C=C(\C)[C@@H](O)[C@@H](OC)C(=O)[C@H](C)C[C@H](C)\C=C/C=C/C=C/1C`, for which the GI50 is 0.00766 µM in assay [1]; above 9.24 µM in [2]; 0.00102 µM in [3]; 0.00576 µM in [4]; below 0.001 µM in [5]; 0.045 µM in assay [10]. The GI50 in assay [9] is 0.22 µM. The TGI in assay [1], in assay [2], in assay [3], in assay [4], in [5] and in assay [10] was above 10 µM throughout. Also, the TGI in [6] and in [9] was above 10 µM throughout.
Regarding `CC(=O)C1CCN(c2ccccc2)C1` (stereo unspecified), the TGI in [2], in assay [3], in assay [4], in [5], in assay [6] and in [9] was above 100 µM in each case. Besides, the TGI in [8] was above 100 µM.
As for `Oc1ccc(Cl)cc1C(c1cc(Cl)ccc1O)C(Cl)(Cl)Cl`, the GI50 in assay [1] was 1.5 µM; in assay [2], 1.76 µM; in assay [3], 1.5 µM; in [4], 1.69 µM; in assay [5], 2.17 µM; in assay [10] it was 1.77 µM. In addition, the GI50 in assay [6] was 2.27 µM; in [9] it was 1.54 µM. Also, the TGI in assay [1] is 3.91 µM; in [2], 4.11 µM; in assay [3], 4.78 µM; in assay [4], 3.67 µM; in assay [5] it was 9.57 µM; in assay [10], 3.42 µM. The TGI in assay [6] was 5.01 µM; in [9], 5.06 µM.
As to `CCCCN(CCCC)C(=O)[C@H](CC)[C@@H]1CC[C@@H](C)[C@@H]([C@H](C)[C@@H](O)[C@@H](C)C(=O)[C@H](CC)C2O[C@]3(C=C[C@@H](O)[C@]4(CC[C@@](C)([C@H]5CC[C@](O)(CC)[C@H](C)O5)O4)O3)[C@H](C)C[C@@H]2C)O1` (stereo partly specified), the GI50 in assay [1] was 1.87 µM; in assay [2], 3.04 µM; in [3], 2.26 µM; in [4] it was 1.88 µM; in [5], 1.78 µM; in [10], 2.61 µM. For the same compound, the GI50 is 3.57 µM in assay [6] and 2.68 µM in assay [9]. The TGI was 4.16 µM in [1]; 10.5 µM in assay [2]; 8.6 µM in assay [3]; 4.2 µM in [4]; 26.9 µM in assay [5]; 6.42 µM in [10]. Further, the TGI in assay [6] was above 100 µM; in [9], 8.31 µM.
Take `CCOC(=O)C(C)(NC(=O)c1ccc(NCc2ccc3nc(NC(=O)c4ccccc4)nc(NC(=O)c4ccccc4)c3c2)cc1)C(=O)OCC`: the TGI in assay [1] turned out to be 38 µM; in assay [2] it was 23.6 µM; in assay [3], 34.9 µM; in assay [4], 9.88 µM; in [5], 7 µM; in [6], 48.9 µM. The TGI in [9] was above 100 µM; in [8], 24.9 µM.
In the case of `CCOCC1(COCC)CCC(c2[nH]ncc2CN(C)CCNC)CC1`, the GI50 is above 100 µM in assay [1]; above 100 µM in [2]; above 100 µM in [3]; above 100 µM in assay [4]; 41.4 µM in [5]; above 100 µM in assay [10]. Moreover, the GI50 in [6] and in [9] was above 100 µM in each case. Moreover, the TGI in assay [1], in assay [2], in assay [3], in assay [4], in assay [5] and in assay [10] was above 100 µM throughout. Moreover, the TGI in [6] and in [9] was above 100 µM in each case.
Take `C=C1C(=O)O[C@H]2[C@H]1CC/C(COC(=O)c1cc(OC)c(OC)c(OC)c1)=C\CC[C@@]1(C)O[C@@H]21`: the GI50 in [1] was 1.77 µM; in assay [2], 0.743 µM; in assay [3] it was 0.402 µM; in assay [4], 0.895 µM; in assay [5], 7.92 µM; in assay [10], 1.23 µM. Further, the GI50 in assay [6] was 1.22 µM; in assay [9], 1.64 µM. Also, the TGI in [1] came to 3.77 µM; in assay [2], 2.02 µM; in assay [3], 1.7 µM; in assay [4], 2.24 µM; in assay [5], 21.6 µM; in [10], 2.47 µM. Further, the TGI was 2.7 µM in assay [6] and 5.55 µM in assay [9].
Take `O=C(O/N=C1\CCCC\C1=C/c1ccccc1)c1ccc([N+](=O)[O-])cc1`: the TGI in [1], in assay [2], in assay [3], in assay [4], in assay [5] and in [9] was above 100 µM each time. The TGI in assay [7] and in assay [8] was above 100 µM throughout.
On to `Cn1c(CBr)nc2c1C(=O)c1nc(CBr)[nH]c(=O)c1C2=O`, for which the TGI in assay [2], in assay [3], in assay [4], in assay [6], in [9] and in assay [7] was above 100 µM each time. For the same compound, in assay [8], the TGI was 68.6 µM.
Turning to `CCOC(=O)[C@@H](C)C[C@H](Cc1ccccc1)NC(=O)c1csc([C@@H](C[C@H](C(C)C)N(C)C(=O)[C@@H](NC(=O)[C@H]2CCCCN2C)C(C)(C)CC)OC(C)=O)n1`, the GI50 was below 0.00167 µM in assay [1]; 0.00225 µM in assay [2]; 0.0132 µM in assay [3]; 0.00226 µM in assay [4]; below 0.00167 µM in assay [5]; below 0.00167 µM in assay [10]. Also, the GI50 in assay [6] is 0.0418 µM; in assay [9], 0.00338 µM. Further, the TGI was 3.68 µM in assay [1]; above 14.1 µM in assay [2]; 14.1 µM in assay [3]; 0.00791 µM in [4]; 13.9 µM in assay [5]; above 16.7 µM in assay [6]. Further, the TGI in [9] was above 13.1 µM.
As for `CCCNC(=O)Nc1c([N+](=O)[O-])cc(C(F)(F)F)cc1[N+](=O)[O-]`, the TGI in assay [2], in assay [3], in [4], in assay [5], in assay [6] and in [9] was above 100 µM in each case. Also, the figures for the TGI in [7] and in [8] were above 100 µM and 69.1 µM, respectively.
`NS(=O)(=O)c1ccc(Nc2cc(-c3ccc(O)c(F)c3)[nH]n2)cc1`: the GI50 in [1] is above 23.2 µM; in assay [2], above 25 µM; in assay [3], above 25 µM; in assay [4], 13.5 µM; in [5], above 25 µM; in assay [10], above 25 µM. Further, the GI50 in assay [6] and in assay [9] was above 25 µM each time. Besides, the TGI in assay [1], in assay [2], in assay [3], in assay [4], in [5] and in assay [10] was above 25 µM in each case. The TGI in [6] and in [9] was above 25 µM throughout.
For `CC(C)(C)c1cc(C(=O)Nc2ccccc2C(=O)NCCN)cc(C(C)(C)C)c1`, the GI50 in assay [1] was 1.93 µM; in assay [2], 1.84 µM; in assay [3], 1.67 µM; in assay [4], 1.89 µM; in assay [5], 1.68 µM; in assay [10] it was 1.84 µM. Further, the GI50 is 1.68 µM in [6] and 2.2 µM in assay [9]. For the same compound, the TGI was 3.64 µM in assay [1]; 3.46 µM in assay [2]; 3.17 µM in [3]; 3.5 µM in assay [4]; 5.08 µM in assay [5]; 3.4 µM in assay [10]. In addition, the TGI was 3.12 µM in assay [6] and 4.86 µM in assay [9].
As for `COC(=O)C(CO)NC(=O)C(CSC(c1ccccc1)(c1ccccc1)c1ccccc1)NC(=O)OCc1ccccc1` (stereo unspecified) (Cbz-Cys(Trt)-Ser-OMe; configuration not given here), the TGI in assay [1] was 28.5 µM; in [2], above 53.3 µM; in assay [3] it was 28.5 µM; in assay [4], 26.3 µM; in [5], 33.7 µM; in [10], 43.4 µM. The TGI in assay [6] is above 66.1 µM; in assay [9] it was above 32.1 µM.
Regarding `O=S1(=O)N2CN3CN(C2)CN1C3`, the TGI in assay [1] turned out to be 324 µM; in assay [2], 283 µM; in assay [3], 410 µM; in assay [5], 69.2 µM; in assay [6], 692 µM; in assay [9], 864 µM. Further, the TGI is 34.1 µM in assay [7] and 337 µM in [8].
